One block for each compound: values may come before it.
Columns and labels:
[1] = target: T1, UGT1A6 (Homo sapiens, UniProt P19224); assay: Glucuronide production in resting S. cerevisiae AH22 cells co-expressing UDPGDH and UGT1A6; assay type: cell-based; set-up: expressed in transfected cells; host or cells: Saccharomyces cerevisiae AH22
T1 sequence (P19224 27-532): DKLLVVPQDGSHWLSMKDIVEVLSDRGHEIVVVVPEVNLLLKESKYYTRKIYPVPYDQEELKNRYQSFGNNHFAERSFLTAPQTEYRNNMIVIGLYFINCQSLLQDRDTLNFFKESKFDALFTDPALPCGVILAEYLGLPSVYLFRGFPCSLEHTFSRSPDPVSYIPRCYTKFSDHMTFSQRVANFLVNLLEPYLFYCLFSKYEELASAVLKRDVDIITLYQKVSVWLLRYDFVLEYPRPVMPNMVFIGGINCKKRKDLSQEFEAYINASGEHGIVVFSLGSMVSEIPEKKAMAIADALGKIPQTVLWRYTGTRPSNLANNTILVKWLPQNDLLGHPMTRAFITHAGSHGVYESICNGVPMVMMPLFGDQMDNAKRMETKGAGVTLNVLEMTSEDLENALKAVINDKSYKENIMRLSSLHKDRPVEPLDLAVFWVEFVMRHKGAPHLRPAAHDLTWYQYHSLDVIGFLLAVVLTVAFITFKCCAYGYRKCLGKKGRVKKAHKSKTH
Description: (§1) Each phase was analyzed by UPLC system.
Time course of conversion in the transformant with the highest activity of glucuronidation (AH22: pAUR/At.UDPGDH+pGYR/hUGT1A6) was examined (FIG. 6).
Glucose concentration dependence of conversion in the transformant with the highest activity of glucuronidation (AH22: pAUR/At.UDPGDH+pGYR/hUGT1A6) was examined (FIG. 7).

[2] = target: T2, hUGT1A1 (Homo sapiens, UniProt P22309); details: 24 h, 0.2 mM, pH 7.4
T2 sequence (P22309 28-533): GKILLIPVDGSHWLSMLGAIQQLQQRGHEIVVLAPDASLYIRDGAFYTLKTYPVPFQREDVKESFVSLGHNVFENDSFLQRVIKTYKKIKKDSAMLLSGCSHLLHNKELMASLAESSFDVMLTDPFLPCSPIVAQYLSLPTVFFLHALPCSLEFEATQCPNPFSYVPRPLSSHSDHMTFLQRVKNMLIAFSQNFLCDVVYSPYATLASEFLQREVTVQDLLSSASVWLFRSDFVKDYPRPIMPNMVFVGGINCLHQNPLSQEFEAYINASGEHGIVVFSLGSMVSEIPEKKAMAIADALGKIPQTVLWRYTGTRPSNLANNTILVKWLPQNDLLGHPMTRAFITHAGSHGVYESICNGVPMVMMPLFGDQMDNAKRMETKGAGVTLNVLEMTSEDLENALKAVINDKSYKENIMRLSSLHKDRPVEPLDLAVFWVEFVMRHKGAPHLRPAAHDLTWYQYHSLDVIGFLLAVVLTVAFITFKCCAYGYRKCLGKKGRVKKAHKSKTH
Description: (§2) To confirm the production of 7-hydroxycoumarine glucuronide in the resting yeast cells containing UDPGDH and UGT, transformants were cultivated in selection medium at 30° C., 48 hrs, and the resultant yeast cells were suspended with appropriate buffer solution containing 0.1-1 mM 7-hydroxycoumarine and 1-8% (w/v) glucose. After incubation at 30° C., 24 hrs, 2-fold volume of chloroform:methanol (3:1, v/v) was added to reaction medium containing yeast cells. Centrifugation of extracts was separated to upper water and lower organic phase. Lower organic phase were evaporated and redissolved in 200 μl acetonitrile. Each phase was analyzed by UPLC system. Condition of analysis are described below; column: Cosmosil 2.5C18-MS-II (2.0 mm×100 mm, nacalai tesque), flow rate 0.5 ml/min, detection 320 nm, temperature 45° C. Condition of gradient elution: water-acetonitrile with 0.5% (v/v) trifluoroacetic acid, 10% (v/v) acetonitrile (4 min), 10-70% acetonitrile (6 min), 70-10% acetonitrile (2 min), 10% acetonitrile (4 min).
(§3) To confirm the production of quercetin glucuronide in the resting yeast cells containing UDPGDH and UGT (pAUR/At.UDPGDH+pGYR/hUGT1A1), transformants were cultivated in selection medium at 30° C., 48 hrs, and the resultant yeast cells were suspended with 0.1 M potassium phosphate buffer (pH 7.4) containing 0.2 mM quercetin and 8% (w/v) glucose. After incubation at 30° C., 24 hrs, 2-fold volume of chloroform:methanol (3:1, v/v) was added to reaction medium containing yeast cells. Centrifugation of extracts was separated to upper water and lower organic phase. Lower organic phase were evaporated and redissolved in 200 μl acetonitrile. Quercetin glucuronides in yeast cells was isolated and detected by WAKOPAK™ Navi C30-5 (3 mm×150 mm, Wako Chemical)-column-HPLC system with followed condition; flow rate; 0.4 ml/min, detection; 370 nm, temperature 37° C. Condition of gradient elution: water-acetonitrile with 0.5% (v/v) phosphoric acid, 18% (v/v) acetonitrile (10 min), 18-55% acetonitrile (10 min), 55% acetonitrile (5 min).
(§4) To compare the production ability of glucuronide in budding (Saccharomyces cerevisiae) and fission yeast (Schizosaccharomyces pombe) containing UDPGDH and UGT, several transformants (No. 4 in Table 2 and transformant with N-terminal modified UGT1A1) were selected for the assay. These transformants were cultivated in selection medium at 30° C., 48 hrs, and the resultant yeast cells were suspended with appropriate buffer solution containing 0.5 mM 4-methylumberrferone and 8% (w/v) glucose. After incubation at 30° C., 24 hrs, 2-fold volume of chloroform:methanol (3:1, v/v) was added to reaction medium containing yeast cells. Centrifugation of extracts was separated to upper water and lower organic phase. Lower organic phase were evaporated and redissolved in 200 μl acetonitrile. Each phase was analyzed by UPLC system.
(§5) Condition of analysis are described below; column: COSMOSIL™ 2.5C18-MS-II (2.0 mm×100 mm, Nacalai Tesque), flow rate 0.5 ml/min, detection 320 nm, temperature 45° C. Condition of gradient elution: water-acetonitrile with 0.1% (v/v) trifluoroacetic acid, 10% acetonitrile (4 min), 10-70% acetonitrile (6 min), 70-10% acetonitrile (2 min), 10% acetonitrile (3 min).

[3] = target: T3, rat UDP-glucose dehydrogenase (Rattus norvegicus, UniProt O70199); assay: Production of UDP-glucuronic acid in yeast cells transformed with rat UDP-glucose dehydrogenase gene; assay type: cell-based; details: estimation of sugar nucleotide, FIG. 4 line C
T3 construct: confirmed the gene product from GenBank Acc; ID NO: 9; expressed in transfected cells; host or cells: Saccharomyces cerevisiae AH22
T3 sequence (O70199 1-493): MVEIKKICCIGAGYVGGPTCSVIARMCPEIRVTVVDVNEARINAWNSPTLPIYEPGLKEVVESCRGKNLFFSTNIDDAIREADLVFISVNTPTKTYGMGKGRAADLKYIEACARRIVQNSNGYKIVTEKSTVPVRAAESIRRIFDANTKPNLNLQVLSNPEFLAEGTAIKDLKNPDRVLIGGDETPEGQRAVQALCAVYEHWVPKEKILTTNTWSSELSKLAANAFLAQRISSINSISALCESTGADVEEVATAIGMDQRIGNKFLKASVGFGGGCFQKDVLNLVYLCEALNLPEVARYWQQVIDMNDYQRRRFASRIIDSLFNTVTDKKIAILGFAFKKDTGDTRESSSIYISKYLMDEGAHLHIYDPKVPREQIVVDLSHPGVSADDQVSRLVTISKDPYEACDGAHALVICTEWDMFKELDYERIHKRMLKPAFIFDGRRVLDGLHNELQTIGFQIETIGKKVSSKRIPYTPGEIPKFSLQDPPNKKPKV
Text: Upper water phase of extracts were separated by centrifugation.

[4] = target: T4, hUGT1A7 (Homo sapiens, UniProt Q9HAW7); assay: Glucuronide production in resting S. cerevisiae AH22 cells co-expressing UDPGDH and UGT1A7; assay type: cell-based; details: UGT1A7 with At.UDPGDH; 7-hydroxycoumarine substrate, 30° C., 24 hrs
T4 construct: expressed in transfected cells; host or cells: Saccharomyces cerevisiae AH22
T4 sequence (Q9HAW7 26-530): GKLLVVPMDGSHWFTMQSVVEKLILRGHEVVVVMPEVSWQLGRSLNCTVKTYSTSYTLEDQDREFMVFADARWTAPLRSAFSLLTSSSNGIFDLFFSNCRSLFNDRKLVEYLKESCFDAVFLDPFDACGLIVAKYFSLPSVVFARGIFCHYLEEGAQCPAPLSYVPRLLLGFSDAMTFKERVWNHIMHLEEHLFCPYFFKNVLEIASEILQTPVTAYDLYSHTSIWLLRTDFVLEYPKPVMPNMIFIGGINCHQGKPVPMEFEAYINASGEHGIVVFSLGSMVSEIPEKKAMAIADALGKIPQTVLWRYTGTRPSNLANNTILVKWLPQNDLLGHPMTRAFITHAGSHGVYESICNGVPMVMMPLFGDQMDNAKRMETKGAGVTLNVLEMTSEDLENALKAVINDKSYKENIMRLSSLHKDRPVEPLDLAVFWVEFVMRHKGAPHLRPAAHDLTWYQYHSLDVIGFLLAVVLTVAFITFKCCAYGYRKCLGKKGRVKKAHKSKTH
Description: as §1

[5] = target: T5, hUGT1A8 (Homo sapiens, UniProt Q9HAW9); assay: Glucuronide production in resting S. cerevisiae AH22 cells co-expressing UDPGDH and UGT1A8; assay type: cell-based
T5 construct: expressed in transfected cells; host or cells: Saccharomyces cerevisiae AH22
T5 sequence (Q9HAW9 26-530): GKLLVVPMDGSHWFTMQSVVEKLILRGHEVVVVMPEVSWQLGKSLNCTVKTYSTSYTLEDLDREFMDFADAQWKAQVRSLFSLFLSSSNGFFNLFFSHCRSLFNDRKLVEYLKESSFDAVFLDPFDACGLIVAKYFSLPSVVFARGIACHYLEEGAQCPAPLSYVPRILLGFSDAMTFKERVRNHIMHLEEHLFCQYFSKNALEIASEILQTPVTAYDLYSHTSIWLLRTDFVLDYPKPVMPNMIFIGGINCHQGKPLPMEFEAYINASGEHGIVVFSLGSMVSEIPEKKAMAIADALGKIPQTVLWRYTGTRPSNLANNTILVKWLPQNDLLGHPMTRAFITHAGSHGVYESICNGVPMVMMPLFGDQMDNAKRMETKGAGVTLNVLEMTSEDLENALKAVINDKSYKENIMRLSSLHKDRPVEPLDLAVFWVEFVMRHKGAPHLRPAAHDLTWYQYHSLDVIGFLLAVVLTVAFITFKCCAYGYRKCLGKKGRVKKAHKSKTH
Description: as §1

[6] = target: T6, hUGT1A9 (Homo sapiens, UniProt O60656); assay: Glucuronide production in resting S. cerevisiae AH22 cells co-expressing UDPGDH and UGT1A9; assay type: cell-based
T6 construct: expressed in transfected cells; host or cells: Saccharomyces cerevisiae AH22
T6 sequence (O60656 26-530): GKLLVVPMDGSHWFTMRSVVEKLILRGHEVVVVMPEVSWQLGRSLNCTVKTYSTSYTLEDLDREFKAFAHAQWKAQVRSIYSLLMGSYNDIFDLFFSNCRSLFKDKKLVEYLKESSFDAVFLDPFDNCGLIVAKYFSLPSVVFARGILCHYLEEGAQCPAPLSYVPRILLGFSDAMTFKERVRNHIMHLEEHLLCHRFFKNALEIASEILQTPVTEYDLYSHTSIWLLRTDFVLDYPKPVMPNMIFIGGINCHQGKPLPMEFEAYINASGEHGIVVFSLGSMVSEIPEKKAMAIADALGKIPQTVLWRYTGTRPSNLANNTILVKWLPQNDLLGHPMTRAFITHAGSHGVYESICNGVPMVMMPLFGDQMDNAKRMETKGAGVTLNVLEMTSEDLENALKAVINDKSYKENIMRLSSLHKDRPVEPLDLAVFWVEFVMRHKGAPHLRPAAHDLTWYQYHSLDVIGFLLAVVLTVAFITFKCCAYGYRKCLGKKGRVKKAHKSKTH
Description: as §1

[7] = target: T2, hUGT1A1; assay: Glucuronide production in resting S. cerevisiae AH22 cells co-expressing UDPGDH and UGT1A1; details: UGT1A1 with At.UDPGDH; 7-hydroxycoumarine substrate, 30° C., 24 hrs
Description: as §2, §3, §4, §5

[8] = target: T7, UGT1A10 (Homo sapiens, UniProt Q9HAW8); assay: Acyl glucuronide production in resting S. cerevisiae cells co-expressing UDPGDH and UGT1A10; assay type: cell-based; details: 1 mM mefenamic acid
T7 construct: expressed in transfected cells; host or cells: Saccharomyces cerevisiae AH22
T7 sequence (Q9HAW8 26-530): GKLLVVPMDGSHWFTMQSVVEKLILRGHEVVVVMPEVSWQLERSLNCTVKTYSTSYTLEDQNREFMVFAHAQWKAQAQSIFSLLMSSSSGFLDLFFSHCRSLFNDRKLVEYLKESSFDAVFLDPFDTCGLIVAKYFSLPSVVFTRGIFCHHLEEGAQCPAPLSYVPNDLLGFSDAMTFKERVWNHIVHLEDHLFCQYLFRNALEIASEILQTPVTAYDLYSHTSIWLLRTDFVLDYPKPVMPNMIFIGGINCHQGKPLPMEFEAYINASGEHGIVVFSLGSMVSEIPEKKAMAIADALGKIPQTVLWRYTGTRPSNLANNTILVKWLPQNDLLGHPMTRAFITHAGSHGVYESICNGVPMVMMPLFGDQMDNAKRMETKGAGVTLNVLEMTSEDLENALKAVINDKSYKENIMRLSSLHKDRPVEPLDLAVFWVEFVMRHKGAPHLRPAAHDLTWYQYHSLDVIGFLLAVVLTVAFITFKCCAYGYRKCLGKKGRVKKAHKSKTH
Description: as §1

conversion to glucuronide, time course (FIG. 6) ([1]; 0.5 mM 7OHC, after 24 hrs): complete conversion | conversion to glucuronide, glucose dependence (FIG. 7) ([1]; at 8% (w/v) glucose): complete conversion
Compound: O=c1ccc2ccc(O)cc2o1 [7OHC, 7-hydroxycoumarine, reference compound]

Compound: O=c1c(O)c(-c2ccc(O)c(O)c2)oc2cc(O)cc(O)c12 [Quercetin, quercetin]
site of glucuronidation (FIG. 9) [2]: preferential production of querecetin glucuronide at 3′ phenolic hydroxyl group in B ring

Compound: O=C(O)[C@H]1O[C@H](OP(=O)(O)OP(=O)(O)OC[C@H]2O[C@@H](n3ccc(=O)[nH]c3=O)[C@H](O)[C@@H]2O)[C@H](O)[C@@H](O)[C@@H]1O [UDP-glucuronic acid]
concentration of endogenous UDP-glucuronic acid in yeast cells [3]: 4 to 5 mM

production of glucuronide (FIG. 5) [4]: observed | production of glucuronide (FIG. 5) ([5]; UGT1A8 with At.UDPGDH, 7-hydroxycoumarine substrate, 30° C., 24 hrs): observed | production of glucuronide (FIG. 5) [6]: observed | production of glucuronide (FIG. 5) ([1]; UGT1A6 with At.UDPGDH, 7-hydroxycoumarine substrate, 30° C., 24 hrs): observed | productivity of glucuronide ([1]; optimal conditions, cells expressing UDPGDH and UGT1A6): 200 mg per liter of reaction solution | production of glucuronide (FIG. 5) [7]: observed
Compound: O=C(O)[C@H]1O[C@@H](Oc2ccc3ccc(=O)oc3c2)[C@H](O)[C@@H](O)[C@@H]1O [glucuronide of 7-hydroxycoumarine, 7-hydroxycoumarine glucuronide]

acyl glucuronide formation (FIG. 11) ([5]; 1 mM mefenamic acid, UGT1A8): significant activity | acyl glucuronide formation (FIG. 11) [8]: significant activity
Compound: Cc1cccc(Nc2ccccc2C(=O)O[C@@H]2O[C@H](C(=O)O)[C@@H](O)[C@H](O)[C@H]2O)c1C [mefenamic acid acyl glucuronide]

Compound: COc1c(C)c2c(c(O[C@@H]3O[C@H](C(=O)O)[C@@H](O)[C@H](O)[C@H]3O)c1C/C=C(\C)CCC(=O)O)C(=O)OC2 [mycophenolic acid glucuronide]
production of glucuronide (FIG. 10) ([6]; 0.2 mM mycophenolic acid, 8% glucose, 30° C., 24 hrs): confirmed

Compound: COc1c(C)c2c(c(O[C@@H]3O[C@H](C(=O)O)[C@@H](O)[C@H](O)[C@H]3O)c1C/C=C(\C)CCC(=O)O)C(=O)OC2 [mycophenolic-O-glucuronide]
site of glucuronidation (FIG. 10) ([6]; 0.2 mM mycophenolic acid, UGT1A9): preferential production
